Data published in article PMC12381781, “Structural and functional insights into the selective inhibition of mutant tau aggregation by purpurin and oleocanthal in frontotemporal dementia” (Protein Science : A Publication of the Protein Society, 2025).

Columns and labels:
SY5Y-TauP301L-EGFP cells = assay: SH-SY5Y seeding assay, Triton X-100 fractionation and western blot; format: cell-based
Text: SH‐SY5Y cells were transfected with the AAVS1 CAG rtTA3 TauP301L 2N4R‐EGFP plasmid using ScreenFect‐A‐plus Transfection Reagent (ScreenFect GmbH). AAVS1 CAG rtTA3 TauP301L 2N4R‐EGFP was a gift from Gerold Schmitt‐Ulms (Addgene plasmid #132393; http://n2t.net/addgene:132393; RRID: Addgene_132393). Stable cell lines expressing TauP301L 2N4R‐EGFP were generated via puromycin selection and are referred to as SY5Y‐TauP301L‐EGFP cells. Stable expression of the inducible TauP301L‐EGFP construct was confirmed by fluorescence microscopy and Western blot after doxycycline induction.
SH‐SY5Y and SY5Y‐TauP301L‐EGFP cells were plated at 250,000 cells per well on Geltrex™‐coated culture plates (Gibco, # A1413201) and maintained in complete DMEM. After 24 h, the medium was replaced with CTS™ Neurobasal™ A Medium (Gibco, # A1371201) supplemented with 1× B‐27™ Supplement (ThermoFisher Scientific, #17504044), […] L‐glutamine, and 1% Penicillin–Streptomycin (complete neurobasal medium). Cells were differentiated by treatment with 10 μM all‐trans‐retinoic acid (RA; Sigma‐Aldrich, # R2625) for 72 h. The differentiation was continued in complete neurobasal media supplemented with 10 μM RA and 50 ng/mL recombinant human brain‐derived neurotrophic factor (BDNF) (R&D Systems, #248‐BDB‐250) for another 72 h.
Differentiated SY5Y‐TauP301L‐EGFP cells were pre‐treated with 0.5 μg/mL doxycycline (Sigma‐Aldrich, # D3447) for 24 h to induce the expression of TauP301L‐EGFP. Doxycycline was maintained in the cell culture media throughout the seeding assay. Cells were transduced with tau aggregation reaction products, standardized to 100 nM tau peptide. Transduction mixtures were prepared by combining the tau aggregation reaction products with TurboFect™ Transfection Reagent (Thermo Fisher Scientific Inc.) in Opti‐MEM™. The mixture was briefly vortexed and incubated at room temperature for 15 min before adding to cells. After 72 h, cells were processed for Triton X‐100 fractionation and western blot analysis, as described below.
Triton X‐100 soluble and insoluble fractions were prepared as described previously with minor modifications (Annadurai, Malina, Malohlava, et al., [2022]). SY5Y‐TauP301L‐EGFP cells were harvested in 1× Tris‐buffered saline (TBS) containing 0.05% Triton X‐100, supplemented with protease and phosphatase inhibitors (Roche, #04693116001 and #04906837001). After centrifugation at 1000 × g for 10 min at 4°C, the supernatant was ultracentrifuged at 24,400 × g for 1 h at 4°C to separate Triton X‐100 soluble and insoluble fractions. The insoluble fraction was resuspended in radioimmunoprecipitation assay (RIPA) buffer (Thermo Fisher Scientific, #89901) with protease and phosphatase inhibitors for further analysis.
Equal volumes of soluble and insoluble fractions were resolved by SDS‐PAGE and transferred onto nitrocellulose membranes using the Trans‐Blot Turbo Transfer System (Bio‐Rad). […]
Densitometric analysis of insoluble tau bands was performed by first normalizing total tau signal intensities to GAPDH levels measured in the corresponding soluble fractions. […]

[1] = test system: CCRF-CEM (human leukemic lymphoblast) cells; assay: MTS cytotoxicity assay, CCRF-CEM cells; format: cell-based; settings: 0-100 µM, 72 h
Description: Figure S16. Cytotoxic activity of PUR and OLC. Tau Biosensor and CCRF-CEM (human leukemic lymphoblast) cells were treated with increasing concentrations (0-100 µM) of PUR and OLC for 72 h. Cell viability was then assessed using the MTS assay. CCRF-CEM (human leukemic lymphoblasts) cells, known for their high sensitivity to cytotoxic agents ^1, were used as positive controls. […] Calculated IC50 values are indicated in the graphs. Mean ± SEM (n = 3).

PHF6 = test system: PHF6; parameters: method as in Viswanathan et al., [2020]; settings: reduced efficacy at higher peptide:compound ratios such as 5:1; ref Viswanathan et al., [2020]; cited from earlier work
[2] = parameters: method as in Viswanathan et al., [2020]; settings: in vitro studies; ref Viswanathan et al., [2020]; cited from earlier work
[3] = cells transduced with P301L peptide aggregation products formed with compound vs without, 72 h

Structure (SMILES) | pSer262, T22, or total tau levels, soluble fractions (SY5Y-TauP301L-EGFP cells; P301L peptide aggregation products, across treatments) | T22 or pSer262 tau, soluble and insoluble fractions (SY5Y-TauP301L-EGFP cells; WT peptide aggregation products formed with compound vs control) | oligomeric tau T22 level, insoluble fraction (SY5Y-TauP301L-EGFP cells; [3]) | pSer262 tau level, insoluble fraction (SY5Y-TauP301L-EGFP cells; [3]) | total tau level, insoluble fraction (SY5Y-TauP301L-EGFP cells; [3]) | IC50 [1] | PHF6 aggregation inhibition (PHF6) | BBB permeation [2]
C/C=C(/C=O)[C@@H](CC=O)CC(=O)OCCc1ccc(O)cc1 [OLC, oleocanthal] | no significant differences | no substantial differences | significantly reduced | significantly reduced | significantly reduced | > 10 µM | – | –
O=C1c2ccccc2C(=O)c2c(O)c(O)cc(O)c21 [PUR, purpurin] | – | – | – | – | – | – | inhibits PHF6 aggregation | can permeate the BBB
